# From publication PMC10803289, “Transport and inhibition mechanism of the human SGLT2–MAP17 glucose transporter” (Nature Structural & Molecular Biology, 2023)
# Where a chain is given by its changes, count along the chain named. Several values for one entry are separate records, joined by “and”; a condition that tells them apart may be missing. Identical values can stand only once.
# Key:
# hSGLT2 F453A = target: T1, hSGLT2 F453A (Homo sapiens, UniProt P31639, F453A); test: α-MG uptake in HEK293 cells, F453A mutant; type: cell-based; parameters: expressed in transfected cells
# T1 sequence (P31639 1-672 F453A): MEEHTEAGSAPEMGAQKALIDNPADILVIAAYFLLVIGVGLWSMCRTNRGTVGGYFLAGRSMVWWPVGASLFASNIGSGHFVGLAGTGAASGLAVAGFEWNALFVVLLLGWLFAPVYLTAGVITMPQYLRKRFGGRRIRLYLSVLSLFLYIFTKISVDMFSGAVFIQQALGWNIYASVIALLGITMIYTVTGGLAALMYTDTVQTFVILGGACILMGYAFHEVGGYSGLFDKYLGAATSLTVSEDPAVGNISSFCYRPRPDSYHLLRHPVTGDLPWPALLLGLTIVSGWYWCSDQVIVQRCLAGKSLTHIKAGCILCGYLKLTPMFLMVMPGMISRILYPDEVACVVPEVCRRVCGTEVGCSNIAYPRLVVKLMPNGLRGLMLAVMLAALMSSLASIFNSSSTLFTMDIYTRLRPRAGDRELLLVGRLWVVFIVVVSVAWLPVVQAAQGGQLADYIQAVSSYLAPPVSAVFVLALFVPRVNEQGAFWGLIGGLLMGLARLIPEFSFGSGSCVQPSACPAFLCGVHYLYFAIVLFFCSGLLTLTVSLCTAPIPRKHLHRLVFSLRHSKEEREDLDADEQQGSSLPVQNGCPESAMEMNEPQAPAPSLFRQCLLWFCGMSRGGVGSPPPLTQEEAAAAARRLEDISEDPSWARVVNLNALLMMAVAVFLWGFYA
# T1 sequence (Q13113 1-114 partner): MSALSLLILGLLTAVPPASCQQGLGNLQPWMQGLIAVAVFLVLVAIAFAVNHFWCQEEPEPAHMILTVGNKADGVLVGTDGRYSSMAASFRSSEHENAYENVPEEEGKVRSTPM
# Description: hSGLT2 complementary DNA and human MAP17 cDNA were synthesized and codon-optimized for expression in human cell lines. Both cDNAs were cloned into the pcDNA3.4 vector. The hSGLT2 sequence was fused with an N-terminal signal sequence from human trypsinogen 1, a His10 tag, and sfGFP, followed by a human rhinovirus 3C protease (HRV3C protease) recognition site. Point mutations were introduced into this construct using site-directed mutagenesis. These plasmids were utilized for all experimental procedures conducted in this study.
# (§1) HEK293 cells (ECACC 85120602) were maintained in Dulbecco’s modified Eagle medium (Gibco) supplemented with 10% fetal bovine serum (Thermo Scientific), 2 mM L-glutamine, 100 U ml^−1 benzylpenicillin and 100 µg ml^−1 streptomycin at 37 °C in a humidified atmosphere (5% CO2 in air). HEK293 cells were seeded at 1.0 × 10^5 cells per well in poly-L-lysine coated 24-well plates. The cells in each well were transiently transfected with 0.25 µg hMAP17 plasmid and 0.50 µg hSGLT2 plasmid using Lipofectamine 2000 (Life Technologies) and cultured for 48 h. […] After preincubation, uptake was initiated by replacing the preincubation buffer with extracellular fluid buffer containing 500 μM α-MG in the absence or presence of inhibitors. Uptake was completed by removing the uptake buffer and washing with ice-cold buffer three times, followed by solubilization in 1 N NaOH at room temperature.
# (§2) Cell lysates were deproteinized by adding acetonitrile containing candesartan as the internal standard. The α-MG concentration was quantified via liquid chromatography–tandem mass spectrometry (LC–MS/MS) using the internal standard method.
# (§3) Cellular protein content was determined using a bicinchoninic acid protein assay kit (Thermo Fisher Scientific). The uptake of α-MG was expressed as the ratio of concentration in the cells (in pmol per mg protein) to concentration in the medium (in pmol μl^−1); this is known as the cell-to-medium ratio (in μl per mg protein).
# (§4) In the inhibition study, the cell-to-medium ratio of cells transfected with the empty vector was used as the background. The specific α-MG uptake was calculated by subtracting this background from the total cell-to-medium ratio and normalized to the uptake achieved without the inhibitor. IC50 was calculated via nonlinear regression using GraphPad Prism 8.4.3.
# (§5) The concentrations of the extract solution from the filter plate and of the cell lysate were quantified using a tandem mass spectrometry QTRAP6500 System (SCIEX) coupled with an ACQUITY UPLC system (Waters) using the internal standard method. Mobile phases A and B used 10 mM of ammonium bicarbonate and acetonitrile, respectively.
# WT hSGLT2 = target: T2, WT hSGLT2 (Homo sapiens, UniProt P31639); test: α-MG uptake in hSGLT2-transfected HEK293 cells, WT; type: cell-based
# T2 construct: expressed in transfected cells; host or cells: HEK293 cells (ECACC 85120602)
# T2 sequence (P31639 1-672): T1 sequence (P31639 1-672 F453A) with A453F
# T2 sequence (Q13113 1-114 partner): T1 sequence (Q13113 1-114 partner)
# Protocol: as §1, §2, §3, §4, §5
compound,measurement,setting,value
O=C(CCc1ccc(O)cc1)c1c(O)cc(O)cc1O[C@@H]1O[C@H](CO)[C@@H](O)[C@H](O)[C@H]1O [Phlorizin],α-MG uptake (% of control),hSGLT2 F453A; Phlorizin 0.3 nM,102.6 % of control and 120.9 % of control and 125.2 % of control
same,α-MG uptake (% of control),hSGLT2 F453A; Phlorizin 1 nM,103.4 % of control and 113.9 % of control and 124.6 % of control
same,α-MG uptake (% of control),hSGLT2 F453A; Phlorizin 3 nM,96.6 % of control and 95.6 % of control and 68.3 % of control
same,α-MG uptake (% of control),hSGLT2 F453A; Phlorizin 10 nM,133.1 % of control and 118.1 % of control and 89.5 % of control
same,α-MG uptake (% of control),hSGLT2 F453A; Phlorizin 30 nM,123.6 % of control and 119.1 % of control and 101.2 % of control
same,α-MG uptake (% of control),hSGLT2 F453A; Phlorizin 100 nM,126.1 % of control and 70.5 % of control and 71.8 % of control
same,remaining activity at 0.0003 µM,"WT hSGLT2; HEK293, Phlorizin 0.3 nM, WT, read-out: α-MG uptake (% of control)",103%
same,remaining activity at 0.001 µM,"WT hSGLT2; HEK293, Phlorizin 1 nM, WT, read-out: α-MG uptake (% of control)",101%
same,remaining activity at 0.01 µM,"WT hSGLT2; HEK293, Phlorizin 10 nM, WT, read-out: α-MG uptake (% of control)",81.9%
same,remaining activity at 0.03 µM,"WT hSGLT2; HEK293, Phlorizin 30 nM, WT, read-out: α-MG uptake (% of control)",53.8%
same,remaining activity at 0.1 µM,"WT hSGLT2; HEK293, Phlorizin 100 nM, WT, read-out: α-MG uptake (% of control)",36.9%
same,remaining activity at 0.3 µM,"WT hSGLT2; HEK293, Phlorizin 300 nM, WT, read-out: α-MG uptake (% of control)",18.1%
same,α-MG uptake (% of control),"WT hSGLT2; Phlorizin 0.3 nM, WT",107.5 % of control and 105.5 % of control
same,α-MG uptake (% of control),"WT hSGLT2; Phlorizin 1 nM, WT",114.0 % of control and 107.4 % of control
same,α-MG uptake (% of control),"WT hSGLT2; Phlorizin 3 nM, WT",83.9 % of control and 115.8 % of control and 121.5 % of control
same,α-MG uptake (% of control),"WT hSGLT2; Phlorizin 10 nM, WT",71.6 % of control and 84.5 % of control
same,α-MG uptake (% of control),"WT hSGLT2; Phlorizin 30 nM, WT",70.4 % of control and 72.9 % of control
same,α-MG uptake (% of control),"WT hSGLT2; Phlorizin 100 nM, WT",38.1 % of control and 34.4 % of control
same,α-MG uptake (% of control),"WT hSGLT2; Phlorizin 300 nM, WT",15.6 % of control and 11.8 % of control
"CO[C@H]1O[C@H](CO)[C@@H](O)[C@H](O)[C@H]1O [α-MG, α-methyl-D-glucopyranoside]",α-MG uptake,hSGLT2 F453A; Fig. 3h,21.78 μL/mg-protein and 20.01 μL/mg-protein and 27.75 μL/mg-protein
same,α-MG uptake,"WT hSGLT2; Control (no inhibitor), hSGLT2 cells",23.4464 μL/mg-protein and 18.7820 μL/mg-protein and 14.3913 μL/mg-protein and 26.3540 μL/mg-protein
same,α-MG uptake,"WT hSGLT2; Fig. 3h, WT",101.43 μL/mg-protein and 101.01 μL/mg-protein and 97.56 μL/mg-protein
same,α-MG uptake,"WT hSGLT2; time course, 500 μM α-MG, 15 min, hSGLT2",4.1190 μL/mg-protein and 4.1163 μL/mg-protein and 6.4519 μL/mg-protein
same,α-MG uptake,"WT hSGLT2; time course, 500 μM α-MG, 30 min, hSGLT2",12.1536 μL/mg-protein and 10.6771 μL/mg-protein and 14.5344 μL/mg-protein
